Test results as given in US7947706B2, “Substituted pyrrolopyridines, compositions containing them, manufacturing process therefor and use thereof” (Sanofi-Aventis Deutschland GmbH, priority 2005, dated 2011).

| melting point | Structure (SMILES) |
| --- | --- |
| 293 °C | Cc1ccc(NC(=O)Nc2ccc(-c3c(C(N)=O)[nH]c4ncccc34)cc2)cc1 [Example 25, 3-[4-(3-p-Tolylureido)phenyl]-1H-pyrrolo[2,3-b]pyridine-2-carboxamide] |
| 285 °C | Cc1ccc(NC(=O)Nc2ccc(-c3c(C(N)=O)[nH]c4ncccc34)cc2)cc1C(F)(F)F [Example 26, 3-{4-[3-(4-Methyl-3-trifluoromethylphenyl)ureido]phenyl}-1H-pyrrolo[2,3-b]pyridine-2-carboxamide] |
| 283.5 °C | NC(=O)c1[nH]c2ncccc2c1-c1ccc(NC(=O)Nc2ccc(OC(F)F)cc2)cc1 [Example 27, 3-{4-[3-(4-Difluoromethoxyphenyl)ureido]phenyl}-1H-pyrrolo[2,3-b]pyridine-2-carboxamide] |
| 266.5 °C | COc1cc(NC(=O)Nc2ccc(-c3c(C(N)=O)[nH]c4ncccc34)cc2)cc(OC)c1 [Example 28, 3-{4-[3-(3,5-Dimethoxyphenyl)ureido]phenyl}-1H-pyrrolo-[2,3-b]pyridine-2-carboxamide] |
| 311.1 °C | NC(=O)c1[nH]c2ncccc2c1-c1ccc(NC(=O)Nc2ccc(Cl)c(C(F)(F)F)c2)cc1 [Example 29, 3-{4-[3-(4-Chloro-3-trifluoromethylphenyl)ureido]phenyl}-1H-pyrrolo[2,3-b]pyridine-2-carboxamide] |
| 221 °C | COc1ccc(C(F)(F)F)cc1NC(=O)Nc1ccc(-c2c(C(N)=O)[nH]c3ncccc23)cc1 [Example 32, 3-{4-[3-(2-Methoxy-5-trifluoromethylphenyl)ureido]phenyl}-1H-pyrrolo[2,3-b]pyridine-2-carboxamide] |
| 216 °C | COc1ccccc1NC(=O)Nc1ccc(-c2c(C(N)=O)[nH]c3cnccc23)cc1 [Example 34, 3-{4-[3-(2-Methoxyphenyl)ureido]phenyl}-1H-pyrrolo[2,3-c]pyridine-2-carboxamide] |
| 228 °C | NC(=O)c1[nH]c2cnccc2c1-c1ccc(NC(=O)Nc2ccccc2C(F)(F)F)cc1 [Example 35, 3-{4-[3-(2-Trifluoromethylphenyl)ureido]phenyl}-1H-pyrrolo[2,3-c]pyridine-2-carboxamide] |
| 256 °C | NC(=O)c1[nH]c2cnccc2c1-c1ccc(NC(=O)Nc2cccc(C(F)(F)F)c2)cc1 [Example 36, 3-{4-[3-(3-Trifluoromethylphenyl)ureido]phenyl}-1H-pyrrolo-[2,3-c]pyridine-2-carboxamide] |
| 271 °C | NC(=O)c1[nH]c2cnccc2c1-c1ccc(NC(=O)Nc2ccc(F)cc2)cc1 [Example 37, 3-{4-[3-(4-Fluorophenyl)ureido]phenyl}-1H-pyrrolo[2,3-c]-pyridine-2-carboxamide] |
| 289 °C | NC(=O)c1[nH]c2cnccc2c1-c1ccc(NC(=O)Nc2ccc(C(F)(F)F)cc2)cc1 [Example 38, 3-{4-[3-(4-Trifluoromethylphenyl)ureido]phenyl}-1H-pyrrolo-[2,3-c]pyridine-2-carboxamide] |
| 277 °C | Cc1ccc(NC(=O)Nc2ccc(-c3c(C(N)=O)[nH]c4cnccc34)cc2)cc1 [Example 39, 3-[4-(3-p-Tolylureido)phenyl]-1H-pyrrolo[2,3-c]pyridine-2-carboxamide] |
| 228 °C | NC(=O)c1[nH]c2cnccc2c1-c1ccc(NC(=O)Nc2ccc(Cl)c(C(F)(F)F)c2)cc1 [Example 40, 3-{4-[3-(4-Chloro-3-trifluoromethylphenyl)ureido]phenyl}-1H-pyrrolo[2,3-c]pyridine-2-carboxamide] |
| 243 °C | NC(=O)c1[nH]c2cnccc2c1-c1ccc(NC(=O)Nc2cc(C(F)(F)F)ccc2Cl)cc1 [Example 41, 3-{4-[3-(2-Chloro-5-trifluoromethylphenyl)ureido]phenyl}-1H-pyrrolo[2,3-c]pyridine-2-carboxamide] |
| 276 °C | NC(=O)c1[nH]c2cnccc2c1-c1ccc(NC(=O)Nc2ccc(OC(F)(F)F)cc2)cc1 [Example 42, 3-{4-[3-(4-Trifluoromethoxyphenyl)ureido]phenyl}-1H-pyrrolo[2,3-c]pyridine-2-carboxamide] |
| 257 °C | NC(=O)c1[nH]c2cnccc2c1-c1ccc(NC(=O)Nc2ccc(OC(F)F)cc2)cc1 [Example 43, 3-{4-[3-(4-Difluoromethoxyphenyl)ureido]phenyl}-1H-pyrrolo[2,3-c]pyridine-2-carboxamide] |
| 230 °C | Cc1ccc(NC(=O)Nc2ccc(-c3c(C(N)=O)[nH]c4cnccc34)cc2)cc1C [Example 44, 3-{4-[3-(3,4-Dimethylphenyl)ureido]phenyl}-1H-pyrrolo[2,3-c]pyridine-2-carboxamide] |
| 225 °C | COc1cc(NC(=O)Nc2ccc(-c3c(C(N)=O)[nH]c4cnccc34)cc2)cc(OC)c1 [Example 45, 3-{4-[3-(3,5-Dimethoxyphenyl)ureido]phenyl}-1H-pyrrolo-[2,3-c]pyridine-2-carboxamide] |
| 261 °C | Cc1ccc(C)c(NC(=O)Nc2ccc(-c3c(C(N)=O)[nH]c4cnccc34)cc2)c1 [Example 46, 3-{4-[3-(2,5-Dimethylphenyl)ureido]phenyl}-1H-pyrrolo[2,3-c]pyridine-2-carboxamide] |
| 242 °C | NC(=O)c1[nH]c2cnccc2c1-c1ccc(NC(=O)Nc2ccccc2F)cc1 [Example 47, 3-{4-[3-(2-Fluorophenyl)ureido]phenyl}-1H-pyrrolo[2,3-c]-pyridine-2-carboxamide] |

Continued, molecule first:

| Structure (SMILES) | melting point |
| --- | --- |
| NC(=O)c1[nH]c2cnccc2c1-c1ccc(NC(=O)Nc2cccc(Cl)c2)cc1.O=C(O)C(F)(F)F | 221 °C |
| NC(=O)c1[nH]c2cnccc2c1-c1ccc(NC(=O)Nc2ccc(F)c(Cl)c2)cc1.O=C(O)C(F)(F)F | 214 °C |
| NC(=O)c1[nH]c2c(ccc[n+]2[O-])c1-c1ccc(NC(=O)Nc2cc(C(F)(F)F)ccc2F)cc1 [Example 8, 3-{4-[3-(2-Fluoro-5-trifluoromethylphenyl)ureido]phenyl}-7-oxy-1H-pyrrolo[2,3-b]pyridine-2-carboxamide] | 220 °C |
| NC(=O)c1[nH]c2ncccc2c1-c1ccc(NC(=O)Nc2ccccc2F)cc1 [Example 9, 3-{4-[3-(2-Fluorophenyl)ureido]phenyl}-1H-pyrrolo[2,3-b]-pyridine-2-carboxamide] | 268.7 °C |
| COc1ccccc1NC(=O)Nc1ccc(-c2c(C(N)=O)[nH]c3ncccc23)cc1 [Example 10, 3-{4-[3-(2-Methoxyphenyl)ureido]phenyl}-1H-pyrrolo[2,3-b]-pyridine-2-carboxamide] | 227.1 °C |
| NC(=O)c1[nH]c2ncccc2c1-c1ccc(NC(=O)Nc2ccc(C(F)(F)F)cc2)cc1 [Example 11, 3-{4-[3-(4-Trifluoromethylphenyl)ureido]phenyl}-1H-pyrrolo-[2,3-b]pyridine-2-carboxamide] | 296.2 °C |
| NC(=O)c1[nH]c2ncccc2c1-c1ccc(NC(=O)Nc2cc(C(F)(F)F)ccc2Cl)cc1 [Example 12, 3-{4-[3-(2-Chloro-5-trifluoromethylphenyl)ureido]phenyl}-1H-pyrrolo[2,3-b]pyridine-2-carboxamide] | 188.3 °C |
| NC(=O)c1[nH]c2ncccc2c1-c1ccc(NC(=O)Nc2cccc(C(F)(F)F)c2F)cc1 [Example 13, 3-{4-[3-(2-Fluoro-3-trifluoromethylphenyl)ureido]phenyl}-1H-pyrrolo[2,3-b]pyridine-2-carboxamide] | 265.4 °C |
| NC(=O)c1[nH]c2ncccc2c1-c1ccc(NC(=O)Nc2ccc(F)c(C(F)(F)F)c2)cc1 [Example 14, 3-{4-[3-(4-Fluoro-3-trifluoromethylphenyl)ureido]phenyl}-1H-pyrrolo[2,3-b]pyridine-2-carboxamide] | 234.7 °C |
| NC(=O)c1[nH]c2ncccc2c1-c1ccc(NC(=O)Nc2cc(F)cc(C(F)(F)F)c2)cc1 [Example 15, 3-{4-[3-(3-Fluoro-5-trifluoromethylphenyl)ureido]phenyl}-1H-pyrrolo[2,3-b]pyridine-2-carboxamide] | 257.5 °C |
| NC(=O)c1[nH]c2ncccc2c1-c1ccc(NC(=O)Nc2ccc(OC(F)(F)F)cc2)cc1 [Example 16, 3-{4-[3-(4-Trifluoromethoxyphenyl)ureido]phenyl}-1H-pyrrolo[2,3-b]pyridine-2-carboxamide] | 258.9 °C |
| COc1ccc(NC(=O)Nc2ccc(-c3c(C(N)=O)[nH]c4ncccc34)cc2)cc1OC [Example 17, 3-{4-[3-(3,4-Dimethoxyphenyl)ureido]phenyl}-1H-pyrrolo-[2,3-b]pyridine-2-carboxamide] | 223.7 °C |
| Cc1ccc(C)c(NC(=O)Nc2ccc(-c3c(C(N)=O)[nH]c4ncccc34)cc2)c1 [Example 18, 3-{4-[3-(2,5-Dimethylphenyl)ureido]phenyl}-1H-pyrrolo[2,3-b]pyridine-2-carboxamide] | 308.8 °C |
| COc1cccc(NC(=O)Nc2ccc(-c3c(C(N)=O)[nH]c4ncccc34)cc2)c1 [Example 19, 3-{4-[3-(3-Methoxyphenyl)ureido]phenyl}-1H-pyrrolo[2,3-b]-pyridine-2-carboxamide] | 306.2 °C |
| NC(=O)c1[nH]c2ncccc2c1-c1ccc(NC(=O)Nc2cccc(C(F)(F)F)c2)cc1 [Example 20, 3-{4-[3-(3-Trifluoromethylphenyl)ureido]phenyl}-1H-pyrrolo-[2,3-b]pyridine-2-carboxamide] | 263.6 °C |
| Cc1ccc(NC(=O)Nc2ccc(-c3c(C(N)=O)[nH]c4ncccc34)cc2)cc1C [Example 21, 3-{4-[3-(3,4-Dimethylphenyl)ureido]phenyl}-1H-pyrrolo[2,3-b]pyridine-2-carboxamide] | 274.7 °C |
| COc1ccc(C)cc1NC(=O)Nc1ccc(-c2c(C(N)=O)[nH]c3ncccc23)cc1 [Example 22, 3-{4-[3-(2-Methoxy-5-methylphenyl)ureido]phenyl}-1H-pyrrolo[2,3-b]pyridine-2-carboxamide] | 327.7 °C |
| Cc1cccc(NC(=O)Nc2ccc(-c3c(C(N)=O)[nH]c4ncccc34)cc2)c1 [Example 23, 3-[4-(3-m-Tolylureido)phenyl]-1H-pyrrolo[2,3-b]pyridine-2-carboxamide] | 266 °C |
| NC(=O)c1[nH]c2ncccc2c1-c1ccc(NC(=O)Nc2ccc(F)cc2)cc1 [Example 24, 3-{4-[3-(4-Fluorophenyl)ureido]phenyl}-1H-pyrrolo[2,3-b]-pyridine-2-carboxamide] | 299.9 °C |
